Where two headings read alike, the source gives them in different places.
How the values were obtained:
TNIK = TNIK (Homo sapiens (Human), UniProt Q9UKE5); assay: TNIK enzymatic assay (radiometric kinase inhibition); type: biochemical
Method: The compounds were studied for function as TNIK inhibitors to generate the data of Table 1. […] (specific activity and concentration as required). The reaction is initiated by the addition of the Mg/ATP mix. After incubation for 40 minutes at room temperature, the reaction is stopped by the addition of phosphoric acid to a concentration of 0.5%.

MAP4K4 (h) = MAP4K4 (h) (Homo sapiens (Human), UniProt O95819); assay: MAP4K4 in vitro kinase assay (radiometric); type: biochemical; conditions: read-out: MAP4K4_IC50
Method: (specific activity and concentration as required). The reaction is initiated by the addition of the Mg/ATP mix. After incubation for 40 minutes at room temperature, the reaction is stopped by the addition of phosphoric acid to a concentration of 0.5%.

[1] = TNIK enzymatic assay, Table 1, read-out: IC50

Sequence of TNIK (Q9UKE5 whole entry): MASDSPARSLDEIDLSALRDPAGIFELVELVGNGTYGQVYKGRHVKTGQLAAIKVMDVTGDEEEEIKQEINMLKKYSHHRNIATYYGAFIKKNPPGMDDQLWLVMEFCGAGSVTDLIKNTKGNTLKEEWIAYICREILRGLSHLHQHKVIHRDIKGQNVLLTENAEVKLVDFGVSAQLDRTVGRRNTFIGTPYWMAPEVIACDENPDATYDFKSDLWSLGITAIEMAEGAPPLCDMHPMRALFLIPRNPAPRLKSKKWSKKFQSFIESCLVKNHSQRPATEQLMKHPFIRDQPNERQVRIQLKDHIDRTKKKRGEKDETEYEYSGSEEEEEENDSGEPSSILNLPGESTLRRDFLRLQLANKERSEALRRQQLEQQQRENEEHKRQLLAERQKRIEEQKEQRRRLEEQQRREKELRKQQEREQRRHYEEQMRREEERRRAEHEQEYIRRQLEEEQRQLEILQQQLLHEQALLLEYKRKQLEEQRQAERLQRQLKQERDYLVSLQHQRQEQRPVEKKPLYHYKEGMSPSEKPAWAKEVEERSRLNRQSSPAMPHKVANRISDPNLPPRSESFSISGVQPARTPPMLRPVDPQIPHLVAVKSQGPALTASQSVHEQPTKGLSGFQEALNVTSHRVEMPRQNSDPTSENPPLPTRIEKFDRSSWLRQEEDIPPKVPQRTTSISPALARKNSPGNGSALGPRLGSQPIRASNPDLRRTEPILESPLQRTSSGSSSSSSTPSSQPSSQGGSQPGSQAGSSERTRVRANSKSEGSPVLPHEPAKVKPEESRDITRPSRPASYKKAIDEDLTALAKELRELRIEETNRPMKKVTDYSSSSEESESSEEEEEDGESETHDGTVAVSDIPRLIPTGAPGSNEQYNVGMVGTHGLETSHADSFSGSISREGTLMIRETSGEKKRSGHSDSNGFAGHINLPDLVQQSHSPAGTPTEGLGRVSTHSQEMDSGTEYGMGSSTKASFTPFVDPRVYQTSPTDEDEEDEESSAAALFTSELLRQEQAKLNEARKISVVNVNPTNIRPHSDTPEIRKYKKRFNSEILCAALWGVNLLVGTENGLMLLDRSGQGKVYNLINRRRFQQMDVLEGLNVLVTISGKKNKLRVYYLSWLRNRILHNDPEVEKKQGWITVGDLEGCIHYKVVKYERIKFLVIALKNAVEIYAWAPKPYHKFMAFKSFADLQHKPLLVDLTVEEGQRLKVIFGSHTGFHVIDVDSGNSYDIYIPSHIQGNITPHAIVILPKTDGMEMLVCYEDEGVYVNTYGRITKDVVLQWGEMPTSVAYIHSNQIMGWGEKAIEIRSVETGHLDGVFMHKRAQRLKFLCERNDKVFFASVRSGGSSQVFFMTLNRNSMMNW
Sequence of MAP4K4 (h) (O95819 whole entry): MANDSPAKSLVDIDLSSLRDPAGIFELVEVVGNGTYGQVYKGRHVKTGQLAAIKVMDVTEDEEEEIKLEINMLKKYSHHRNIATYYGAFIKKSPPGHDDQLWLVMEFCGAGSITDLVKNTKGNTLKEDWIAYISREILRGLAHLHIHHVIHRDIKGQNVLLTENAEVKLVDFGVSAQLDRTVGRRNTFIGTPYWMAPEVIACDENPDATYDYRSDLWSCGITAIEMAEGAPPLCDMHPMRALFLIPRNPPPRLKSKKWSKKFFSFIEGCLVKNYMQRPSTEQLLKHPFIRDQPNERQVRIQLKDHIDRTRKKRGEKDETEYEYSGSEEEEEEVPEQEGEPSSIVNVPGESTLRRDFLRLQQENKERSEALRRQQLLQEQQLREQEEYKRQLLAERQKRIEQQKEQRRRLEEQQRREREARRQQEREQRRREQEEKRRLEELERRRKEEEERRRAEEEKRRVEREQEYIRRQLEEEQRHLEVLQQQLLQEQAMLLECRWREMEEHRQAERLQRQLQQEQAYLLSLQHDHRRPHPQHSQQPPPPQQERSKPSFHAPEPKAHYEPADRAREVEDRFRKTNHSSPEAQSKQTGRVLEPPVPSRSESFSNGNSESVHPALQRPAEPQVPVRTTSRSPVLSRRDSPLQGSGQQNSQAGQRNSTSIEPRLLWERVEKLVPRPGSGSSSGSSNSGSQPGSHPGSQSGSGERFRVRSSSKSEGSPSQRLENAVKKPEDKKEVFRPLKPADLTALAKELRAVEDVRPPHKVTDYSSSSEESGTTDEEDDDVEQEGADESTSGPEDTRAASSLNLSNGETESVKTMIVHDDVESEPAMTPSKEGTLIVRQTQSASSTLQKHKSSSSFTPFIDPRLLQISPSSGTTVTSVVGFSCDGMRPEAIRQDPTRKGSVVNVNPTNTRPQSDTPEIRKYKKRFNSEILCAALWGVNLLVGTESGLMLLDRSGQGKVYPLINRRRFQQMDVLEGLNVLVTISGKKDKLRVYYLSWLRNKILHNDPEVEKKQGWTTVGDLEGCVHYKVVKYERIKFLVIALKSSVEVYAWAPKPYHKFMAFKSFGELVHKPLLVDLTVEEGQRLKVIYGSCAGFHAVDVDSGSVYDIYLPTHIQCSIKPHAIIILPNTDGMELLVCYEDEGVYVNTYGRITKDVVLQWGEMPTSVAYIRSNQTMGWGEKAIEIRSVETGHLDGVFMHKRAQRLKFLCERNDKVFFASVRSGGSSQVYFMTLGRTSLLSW

| SMILES | IC50 (TNIK; [1]) [nM] | IC50 (TNIK; read-out: TNIK_IC50) [nM] | IC50 (MAP4K4 (h)) [nM] |
| --- | --- | --- | --- |
| COc1cccc(NC(=O)c2ccc(-c3c(-c4ccc(F)cc4)ncn3C3CCCCC3)o2)c1 [Compound 53, 5-(1-cyclohexyl-4-(4-fluorophenyl)-1H-imidazol-5-yl)-N-(3-methoxyphenyl)furan-2-carboxamide] | 138 | 138 | 244 |
| O=C(Nc1ccc(Cl)cc1)c1ccc(-c2c(-c3ccc(F)cc3)ncn2C2CCCCC2)o1 [Compound 56, N-(4-chlorophenyl)-5-(1-cyclohexyl-4-(4-fluorophenyl)-1H-imidazol-5-yl)furan-2-carboxamide] | 99 | 99 | 195 |
| COc1cc(NC(=O)c2ccc(-c3c(-c4ccc(F)cc4)ncn3C3CCCCC3)o2)cc(OC)c1 [Compound 58, 5-(1-cyclohexyl-4-(4-fluorophenyl)-1H-imidazol-5-yl)-N-(3,5-dimethoxyphenyl)furan-2-carboxamide] | 275 | 275 | 581 |
| Cc1cccc(NC(=O)c2ccc(-c3c(-c4ccc(F)cc4)ncn3C3CCCCC3)o2)c1C [Compound 59, 5-(1-cyclohexyl-4-(4-fluorophenyl)-1H-imidazol-5-yl)-N-(2,3-dimethylphenyl)furan-2-carboxamide] | 562 | 562 | > 1000 |
| Cc1cccc(C)c1NC(=O)c1ccc(-c2c(-c3ccc(F)cc3)ncn2C2CCCCC2)o1 [Compound 60, 5-(1-cyclohexyl-4-(4-fluorophenyl)-1H-imidazol-5-yl)-N-(2,6-dimethylphenyl)furan-2-carboxamide] | 874 | 874 | > 1000 |
| CCc1ccccc1NC(=O)c1ccc(-c2c(-c3ccc(F)cc3)ncn2C2CCCCC2)o1 [Compound 61, 5-(1-cyclohexyl-4-(4-fluorophenyl)-1H-imidazol-5-yl)-N-(2-ethylphenyl)furan-2-carboxamide] | 164 | 164 | 247 |
| O=C(Nc1cccc(F)c1)c1ccc(-c2c(-c3ccc(F)cc3)ncn2C2CCCCC2)o1 [Compound 63, 5-(1-cyclohexyl-4-(4-fluorophenyl)-1H-imidazol-5-yl)-N-(3-fluorophenyl)furan-2-carboxamide] | 108 | 108 | 127 |
| CCOc1ccc(NC(=O)c2ccc(-c3c(-c4ccc(F)cc4)ncn3C3CCCCC3)o2)cc1 [Compound 64, 5-(1-cyclohexyl-4-(4-fluorophenyl)-1H-imidazol-5-yl)-N-(4-ethoxyphenyl)furan-2-carboxamide] | 62 | 62 | 175 |
| Cc1ccccc1NC(=O)c1ccc(-c2c(-c3ccc(F)cc3)ncn2C2CCCCC2)o1 [Compound 65, 5-(1-cyclohexyl-4-(4-fluorophenyl)-1H-imidazol-5-yl)-N-(o-tolyl)furan-2-carboxamide] | 152 | 152 | 320 |
| Cc1ccc(NC(=O)c2ccc(-c3c(-c4ccc(F)cc4)ncn3C3CCCCC3)o2)cc1Cl [Compound 66, N-(3-chloro-4-methylphenyl)-5-(1-cyclohexyl-4-(4-fluorophenyl)-1H-imidazol-5-yl)furan-2-carboxamide] | 531 | 531 | > 1000 |
| Cc1ccc(NC(=O)c2ccc(-c3c(-c4ccc(F)cc4)ncn3C3CCCCC3)o2)c(C)c1 [Compound 67, 5-(1-cyclohexyl-4-(4-fluorophenyl)-1H-imidazol-5-yl)-N-(2,4-dimethylphenyl)furan-2-carboxamide] | 77 | 77 | 247 |
| Cc1ccc(NC(=O)c2ccc(-c3c(-c4ccc(F)cc4)ncn3C3CCCCC3)o2)cc1C [Compound 69, 5-(1-cyclohexyl-4-(4-fluorophenyl)-1H-imidazol-5-yl)-N-(3,4-dimethylphenyl)furan-2-carboxamide] | 90 | 90 | 288 |
| Cc1cc(C)c(NC(=O)c2ccc(-c3c(-c4ccc(F)cc4)ncn3C3CCCCC3)o2)c(C)c1 [Compound 70, 5-(1-cyclohexyl-4-(4-fluorophenyl)-1H-imidazol-5-yl)-N-mesitylfuran-2-carboxamide] | 936 | 936 | > 1000 |
| CC(=O)c1cccc(NC(=O)c2ccc(-c3c(-c4ccc(F)cc4)ncn3C3CCCCC3)o2)c1 [Compound 71, N-(3-acetylphenyl)-5-(1-cyclohexyl-4-(4-fluorophenyl)-1H-imidazol-5-yl)furan-2-carboxamide] | 151 | 151 | 625 |
| CSc1cccc(NC(=O)c2ccc(-c3c(-c4ccc(F)cc4)ncn3C3CCCCC3)o2)c1 [Compound 72, 5-(1-cyclohexyl-4-(4-fluorophenyl)-1H-imidazol-5-yl)-N-(3-(methylthio)phenyl)furan-2-carboxamide] | 238 | 238 | 638 |
| CCc1cccc(NC(=O)c2ccc(-c3c(-c4ccc(F)cc4)ncn3C3CCCCC3)o2)c1 [Compound 74, 5-(1-cyclohexyl-4-(4-fluorophenyl)-1H-imidazol-5-yl)-N-(3-ethylphenyl)furan-2-carboxamide] | 326 | 326 | 300 |
| O=C(Nc1ccc(F)c(F)c1)c1ccc(-c2c(-c3ccc(F)cc3)ncn2C2CCCCC2)o1 [Compound 75, 5-(1-cyclohexyl-4-(4-fluorophenyl)-1H-imidazol-5-yl)-N-(3,4-difluorophenyl)furan-2-carboxamide] | 191 | 191 | 431 |
| O=C(Nc1ccccc1F)c1ccc(-c2c(-c3ccc(F)cc3)ncn2CC2CCCN2)o1 (stereo not shown) [Compound 88, N-(2-fluorophenyl)-5-(4-(4-fluorophenyl)-1-(pyrrolidin-2-ylmethyl)-1H-imidazol-5-yl)furan-2-carboxamide] | 8450 | 8450 | 12400 |
| O=C(Nc1ccccc1F)c1ccc(-c2c(-c3cncnc3)ncn2C2CCCC2)o1 [Compound 94, 5-(1-cyclopentyl-4-(pyrimidin-5-yl)-1H-imidazol-5-yl)-N-(2-fluorophenyl)furan-2-carboxamide] | – | > 10000 | > 10000 |
| O=C(Nc1ccc(-c2c(-c3ccc(F)cc3)ncn2C2CCCC2)o1)c1ccccc1F [Compound 95, N-(5-(1-cyclopentyl-4-(4-fluorophenyl)-1H-imidazol-5-yl)furan-2-yl)-2-fluorobenzamide] | – | 480 | 547 |

Now those with a lower IC50 (TNIK; read-out: TNIK_IC50), led by results:

| IC50 (TNIK; [1]) [nM] | IC50 (TNIK; read-out: TNIK_IC50) [nM] | IC50 (MAP4K4 (h)) [nM] | SMILES |
| --- | --- | --- | --- |
| 60 | 60 | 107 | COc1ccc(NC(=O)c2ccc(-c3c(-c4ccc(F)cc4)ncn3C3CCCCC3)o2)cc1 [Compound 54, 5-(1-cyclohexyl-4-(4-fluorophenyl)-1H-imidazol-5-yl)-N-(4-methoxyphenyl)furan-2-carboxamide] |
| 24 | 24 | 43.4 | O=C(Nc1ccccc1Cl)c1ccc(-c2c(-c3ccc(F)cc3)ncn2C2CCCCC2)o1 [Compound 55, N-(2-chlorophenyl)-5-(1-cyclohexyl-4-(4-fluorophenyl)-1H-imidazol-5-yl)furan-2-carboxamide] |
| 38 | 38 | 111 | O=C(Nc1ccc(F)cc1F)c1ccc(-c2c(-c3ccc(F)cc3)ncn2C2CCCCC2)o1 [Compound 57, 5-(1-cyclohexyl-4-(4-fluorophenyl)-1H-imidazol-5-yl)-N-(2,4-difluorophenyl)furan-2-carboxamide] |
| 25 | 25 | 46.9 | O=C(Nc1ccccc1F)c1ccc(-c2c(-c3ccc(F)cc3)ncn2C2CCCCC2)o1 [Compound 62, 5-(1-cyclohexyl-4-(4-fluorophenyl)-1H-imidazol-5-yl)-N-(2-fluorophenyl)furan-2-carboxamide] |
| 19 | 19 | 71.7 | Cc1ccc(NC(=O)c2ccc(-c3c(-c4ccc(F)cc4)ncn3C3CCCCC3)o2)c(Cl)c1 [Compound 68, N-(2-chloro-4-methylphenyl)-5-(1-cyclohexyl-4-(4-fluorophenyl)-1H-imidazol-5-yl)furan-2-carboxamide] |
| 48 | 48 | 270 | CC(C)c1ccc(NC(=O)c2ccc(-c3c(-c4ccc(F)cc4)ncn3C3CCCCC3)o2)cc1 [Compound 73, 5-(1-cyclohexyl-4-(4-fluorophenyl)-1H-imidazol-5-yl)-N-(4-isopropylphenyl)furan-2-carboxamide] |
| 42 | 42 | 70.3 | O=C(Nc1ccc(Cl)cc1F)c1ccc(-c2c(-c3ccc(F)cc3)ncn2C2CCCCC2)o1 [Compound 76, N-(4-chloro-2-fluorophenyl)-5-(1-cyclohexyl-4-(4-fluorophenyl)-1H-imidazol-5-yl)furan-2-carboxamide] |
| 27 | 27 | 62.2 | COc1ccc(C)cc1NC(=O)c1ccc(-c2c(-c3ccc(F)cc3)ncn2C2CCCCC2)o1 [Compound 77, 5-(1-cyclohexyl-4-(4-fluorophenyl)-1H-imidazol-5-yl)-N-(2-methoxy-5-methylphenyl)furan-2-carboxamide] |
| 15 | 15 | 34.6 | CC(=O)Nc1ccc(NC(=O)c2ccc(-c3c(-c4ccc(F)cc4)ncn3C3CCCCC3)o2)cc1 [Compound 78, N-(4-acetamidophenyl)-5-(1-cyclohexyl-4-(4-fluorophenyl)-1H-imidazol-5-yl)furan-2-carboxamide] |
| 16 | 16 | 22.2 | COc1ccccc1NC(=O)c1ccc(-c2c(-c3ccc(F)cc3)ncn2C2CCCCC2)o1 [Compound 79, 5-(1-cyclohexyl-4-(4-fluorophenyl)-1H-imidazol-5-yl)-N-(2-methoxyphenyl)furan-2-carboxamide] |

Reference: patent publication US11739078B2, “Methods of inhibiting kinases” (INSILICO MEDICINE IP LIMITED, priority 2019, dated 2023)
